Test results from patent US20110044936A1, “Composition for Attracting Bed Bugs” (priority 2009, published 2011).

Columns and labels:
Format in all cases: in vivo
[1] = system: bed bugs (Cimex lectularius); assay: Bed bug aggregation (attraction) assay, Petri dish arena with treated and control filter paper tents (Example 1); settings: 5 microliters, one hour, five bed bugs, average of two tests
Protocol: Attraction Assays: Assay arenas were made from 150×15 mm plastic Petri dishes (VWR#25384-326) containing a 125 mm piece off qualitative filter paper (VWR#28320-100) glued to the bottom using 3M Super 77® multipurpose spray adhesive. A 80 mm hole was cut into the lid and a 500 um mesh Nytex® screen (Bioquip, #7293B) was glued to cover the opening using quick epoxy. Fresh bottom dishes were used in each assay. For these experiments 2.4 cm filter paper folded to create a tent were treated with either a control treatment (10 microliters of silicone oil for aldehyde controls and 5 microliters of deionized water for acid controls) or 10 microliters of the experimental test treatment diluted in silicone oil (aldehydes) or 5 microliters of the experimental chemical diluted in deionized water (acids). Ten bed bugs per test were released into the assay arena for the aldehyde test treatments and controls, five bed bugs per test were released into the assay arena for the acid test treatments. Day cycling bed bugs (Cimex lectularius), 12 hour light: 12 hour dark (7 AM On: 7 PM Off) light cycle, were incubated and evaluated under normal room lighting conditions at room temperature. Readings were taken at 1 hour intervals from the release of bed bugs for 4 hours for aldehydes and one hour for acids, due to the quick volatility of the acids. The number of bed bugs under the control filter paper disk and the number of bed bugs under the test treatment filter paper disk were recorded. The test treatment was considered to be an attractant if the number of bed bugs under the experimental filter disk was greater than the number under the control filter disk. Table 1 below summarizes the experimental data, the experimental test treatments considered as attractants are in bold.

[2] = system: bed bugs (Cimex lectularius); assay: Bed bug aggregation assay, mixtures of Hexenal, Octenal and butyric acid (Example 3); settings: for Number of bed bugs under experimental (Exp) disk: H/O 75/25 120 ppm in silicone oil, BA about 100 ppm in deionized water, 5 microliters each, ten bed bugs, average of two tests
Protocol: Attraction Assays: […] For this test, a mixture of Hexenal and Octenal (75:25 ratio) was diluted in silicone oil to provide about a 120 ppm solution. […] Readings were taken hourly for four hours from the release of bed bugs in the assay arena. The number of bed bugs under the control disk and the number of bed bugs under the experimental disk were recorded. The test chemical was considered to be an attractant if the number of bed bugs under the experimental filter disk was greater than the number under the control disk. Table 3 below summarizes the experimental data, the experimental test treatment considered as attractants are in bold.

[3] = system: bed bugs (Cimex lectularius); assay: Test arena gas assay, compounds dissolved in nonane (Example 5)
From the text: A test arena was constructed from a 60×40×22 cm (L:W:H) polystyrene container. A 60×40 cm piece of filter paper was glued on the bottom to provide a walking surface for the bed bugs. At one end of the test arena, a triangular piece of plastic (16 cm high×25 cm long) was glued to the middle of the side and bottom of the container to create test zones of equal area on either side of the partition. On each side of this partition a piece of Tygon® tubing was inserted through a hole 7 cm above the bottom of each test zone to deliver a control gas to one side of the partition (control zone) and the experimental gas to the other side of the partition (experimental zone). The tubing was positioned to deliver the gases downward into the test zones with each outlet 6 cm above the filter paper glued to the bottom of the container. At the other end of the test arena, a 4 W night light was placed 35 cm above the bottom of the arena and regulated to a 12 hour light:12 hour dark (7 AM On: 7 PM Off) light cycle. Also placed adjacent to the night light was a small fan (Boston, cat#EHSDF) to create a gentle removal of gases from the distal part of the arena. Air released by the experimental and control gases was contained within their partitions and were gently drawn away from the respective air inputs, mixed within the arena and removed by the fan. This created a laminar flow where the bed bugs had opportunity to select either the experimental or control gas. Fifty bed bugs (Cimex lectularius) were entrapped within an inverted 90 mm Petri dish at a position furthest from the control and experimental zones until bed bugs were quiescent. Removal of the Petri dish started the experiment and readings were taken every hour for two hours. Data collected were number of bed bugs in the experimental, control and free arena zones. In addition, gas temperature, relative humidity, air flow rate, and percent CO2 data were collected. The experimental gas was considered to be an attractant if more bed bugs were in the experimental zone than in the control zone.
Determination of Bed Bug Aggregation Effect Using Hexenal, Butyric Acid, trans-2-Hexen-1-al Diethylacetal, Trimethylsilyl Butyrate or Methyl Butyrate Dissolved in an Alkane Solvent Using the test arena and methods described in Example 4, test treatments containing about 300 ppm of a pro-aldehyde compound, trans-2-hexen-1-al diethylacetal, dissolved in nonane, about 300 ppm of Hexenal dissolved in nonane, about 200 ppm of butyric acid dissolved in nonane and about 200 ppm of a pro-organic acid compound, trimethylsilyl butyrate or methyl butyrate, dissolved in nonane were prepared. Separate 100 micro liter pipettes (Drummond Wiretrol 100 μL) were filled with the test solutions. One end of each micro liter pipette was sealed with parafilm leaving one end of each open. […] An air tight lid was placed onto the plastic container and the container was installed in-line after humidity and temperature conditioning of the gas and before the gas entered the arena. The micro liter pipettes were weighed before and after use to determine the amount of the test compounds released. The control gas used for these experiments consisted of house compressed air.

[4] = system: bed bugs (Cimex lectularius); assay: Test arena assay with experimental gas and control gas zones (Example 4); settings: after two hour exposure; fifty bed bugs; Hexenal/Octenal 75/25 at 73 nanograms/hour, butyric acid 3.097 micrograms/hour @ 100 mL/min air flow; CO2 50%; test gas 23-26 °C; control gas compressed air
From the text: A test arena was constructed from a 60×40×22 cm (L:W:H) polystyrene container. […] At one end of the test arena, a triangular piece of plastic (16 cm high×25 cm long) was glued to the middle of the side and bottom of the container to create test zones of equal area on either side of the partition. On each side of this partition a piece of Tygon® tubing was inserted through a hole 7 cm above the bottom of each test zone to deliver a control gas to one side of the partition (control zone) and the experimental gas to the other side of the partition (experimental zone). The tubing was positioned to deliver the gases downward into the test zones with each outlet 6 cm above the filter paper glued to the bottom of the container. […] Removal of the Petri dish started the experiment and readings were taken every hour for two hours. […] Air temperature was monitored with a high/low thermometer. […] Relative humidity was monitored using a high/low hygrometer placed in-line immediately before the gas entered the arena. […] The relationship between valve settings and air flow was determined and using this information, valve settings were determined that could deliver blended gases (air and CO2) at a flow rate of about 100 or about 200 ml/min. […]

SMILES | Number of bed bugs under experimental (Exp) filter paper disk ([1]; organic acid 10 ppm in deionized water) | Number of bed bugs under experimental (Exp) filter paper disk ([1]; organic acid 50 ppm in deionized water) | Number of bed bugs under experimental (Exp) filter paper disk ([1]; organic acid 100 ppm in deionized water) | Number of bed bugs under experimental (Exp) filter paper disk ([1]; organic acid 1000 ppm in deionized water) | Number of bed bugs under experimental (Exp) filter paper disk ([1]; organic acid 10000 ppm in deionized water) | Number of bed bugs under experimental (Exp) disk ([2]; 1 Hour) | Number of bed bugs under experimental (Exp) disk ([2]; 2 Hour) | Number of bed bugs under experimental (Exp) disk ([2]; 3 Hour) | Number of bed bugs under experimental (Exp) disk ([2]; 4 Hours) | Attraction of bed bugs to experimental filter disks ([2]; H/O 75:25 120 ppm, butyric acid 100 ppm) | % Bed bugs in Experimental Zone ([3]; after two hour exposure, released from nonane solution at 150.0-184.8 nanograms/hour @ 100 mL/min air flow, test gas 21-22 °C, control gas compressed air) [%] | Attraction of bed bugs to gaseous mixture ([3]; test arena, two hour exposure, versus control gas) | % Bed bugs in Experimental Zone [4] [%]
CCCC(=O)O [Butyric acid, butyric acid] | 4 | 2 | 4 | 4 | 4 | 4.5 | 5.5 | 4.5 | 5 | attracted | 34.0 | attracted | –
O=C=O [CO2, carbon dioxide] | – | – | – | – | – | – | – | – | – | – | – | – | 76.0
